Test results as given in the supplement of paper PMC10627819.

Key:
S. pneumoniae D39V [1] = experiment: fitness (endpoint OD595 vs no drug) (fraction); higher = more growth
Procedure, shortened: (§1)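 Fitness expresses the optical density reached at the stationary-phase transition as a fraction of the robust mean of no-drug control wells. It is capped at 1. Measurements were OD595 every 30 min for 14 h at 37 °C after inoculation of 384-well plates at OD595 0.01 (30 µl, or 55 µl for S. pneumoniae), minus the first reading.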

S. aureus DSM 20231 [2] = experiment: as above
Procedure, shortened: as §1

S. aureus Newman [3] = experiment: as above
Procedure, shortened: as §1

S. pneumoniae D39V [4] = experiment: Bliss interaction score (quartile over a dose matrix) (fitness difference); higher = more antagonism (negative = synergy)
Procedure, shortened: (§2)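 The Bliss score subtracts expected fitness, the product of the single-drug fitness values, from observed fitness. Fitness is plate-normalised OD595 at entry into stationary phase, relative to the robust no-drug mean and capped at 1, with single-drug fitness inferred from combinations. Summaries are quartiles over technical, biological and donor/recipient replicates.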

S. aureus DSM 20231 [5] = experiment: as above
Procedure, shortened: as §2

S. aureus Newman [6] = experiment: as above
Procedure, shortened: as §2

B. subtilis 168 = experiment: as above
Procedure, shortened: as §2
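For Bliss interaction score (quartile over a dose matrix) in this document: first quartile when negative (synergy) and third quartile when positive (antagonism).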

CC1(C)S[C@@H]2[C@H](NC(=O)[C@H](N)c3ccc(O)cc3)C(=O)N2[C@H]1C(=O)O [Amoxicillin] + C[C@@H]1O[C@@H]1P(=O)(O)O [Fosfomycin]
Settings | fitness
S. aureus DSM 20231 [2], first compound 0.0625 µg/mL, partner 0.781 µg/mL | 0.469
S. aureus DSM 20231 [2], first compound 0.0625 µg/mL, partner 1.562 µg/mL | 0.369
S. aureus DSM 20231 [2], first compound 0.0625 µg/mL, partner 3.124 µg/mL | 0.0511
S. aureus DSM 20231 [2], first compound 0.125 µg/mL, partner 0.781 µg/mL | 0.278
S. aureus DSM 20231 [2], first compound 0.125 µg/mL, partner 1.562 µg/mL | 0.0267
S. aureus DSM 20231 [2], first compound 0.125 µg/mL, partner 3.124 µg/mL | 0.0388
S. aureus DSM 20231 [2], first compound 0.25 µg/mL, partner 0.781 µg/mL | 0.0416
S. aureus DSM 20231 [2], first compound 0.25 µg/mL, partner 1.562 µg/mL | 0.0638
S. aureus DSM 20231 [2], first compound 0.25 µg/mL, partner 3.124 µg/mL | 0.038
S. aureus Newman [3], first compound 0.0625 µg/mL, partner 0.781 µg/mL | 0.612
S. aureus Newman [3], first compound 0.0625 µg/mL, partner 1.562 µg/mL | 0.506
S. aureus Newman [3], first compound 0.125 µg/mL, partner 0.781 µg/mL | 0.597
S. aureus Newman [3], first compound 0.125 µg/mL, partner 3.124 µg/mL | 0.185
S. aureus Newman [3], first compound 0.25 µg/mL, partner 0.781 µg/mL | 0.567
S. aureus Newman [3], first compound 0.25 µg/mL, partner 3.124 µg/mL | 0.096
S. pneumoniae D39V [1], first compound 0.0008 µg/mL, partner 1.25 µg/mL | 0.938
S. pneumoniae D39V [1], first compound 0.0008 µg/mL, partner 2.5 µg/mL | 0.893
S. pneumoniae D39V [1], first compound 0.0008 µg/mL, partner 5 µg/mL | 0.803
S. pneumoniae D39V [1], first compound 0.0015 µg/mL, partner 1.25 µg/mL | 0.914
S. pneumoniae D39V [1], first compound 0.0015 µg/mL, partner 2.5 µg/mL | 0.887
S. pneumoniae D39V [1], first compound 0.0015 µg/mL, partner 5 µg/mL | 0.672
S. pneumoniae D39V [1], first compound 0.003 µg/mL, partner 1.25 µg/mL | 0.877
S. pneumoniae D39V [1], first compound 0.003 µg/mL, partner 2.5 µg/mL | 0.834
S. pneumoniae D39V [1], first compound 0.003 µg/mL, partner 5 µg/mL | 0.531

fitness, one replicate
Settings | partner 0.781 µg/mL | partner 1.25 µg/mL | partner 1.562 µg/mL | partner 2.5 µg/mL | partner 3.124 µg/mL | partner 5 µg/mL
S. aureus DSM 20231 [2], first compound 0.5 µg/mL | 0.0154 | – | 0.0129 | – | 0.0057 | –
S. pneumoniae D39V [1], first compound 0.006 µg/mL | – | 0.339 | – | 0.279 | – | 0.146

Settings | Bliss interaction score
B. subtilis 168 | 0.102
S. aureus DSM 20231 [5] | -0.169
S. aureus Newman [6] | 0.0512
S. pneumoniae D39V [4] | -0.113

CCCCCCCCCC(=O)N[C@@H](Cc1c[nH]c2ccccc12)C(=O)N[C@H](CC(N)=O)C(=O)N[C@@H](CC(=O)O)C(=O)N[C@@H]1C(=O)NCC(=O)N[C@@H](CCCN)C(=O)N[C@@H](CC(=O)O)C(=O)N[C@H](C)C(=O)N[C@@H](CC(=O)O)C(=O)NCC(=O)N[C@H](CO)C(=O)N[C@@H]([C@H](C)CC(=O)O)C(=O)N[C@@H](CC(=O)c2ccccc2N)C(=O)O[C@@H]1C [Daptomycin] + CCCCCCCCCC(=O)N[C@@H]1[C@H]([C@@H]([C@H](O[C@H]1OC2=C3C=C4C=C2OC5=C(C=C(C=C5)[C@H]([C@H]6C(=O)N[C@@H](C7=C(C(=CC(=C7)O)OC8[C@H]([C@H]([C@@H]([C@H](O8)CO)O)O)O)C9=C(C=CC(=C9)[C@H](C(=O)N6)NC(=O)[C@@H]4NC(=O)[C@@H]1C2=CC(=CC(=C2)OC2=C(C=CC(=C2)[C@H](C(=O)N[C@H](CC2=CC(=C(O3)C=C2)Cl)C(=O)N1)N)O)O)O)C(=O)O)O[C@H]1[C@@H]([C@H]([C@@H]([C@H](O1)CO)O)O)NC(=O)C)Cl)CO)O)O [Teicoplanin]
fitness, main component drawn
Settings | first compound 0.125 µg/mL | first compound 0.25 µg/mL | first compound 0.5 µg/mL | first compound 1 µg/mL | first compound 2 µg/mL
S. aureus DSM 20231 [2], partner 0.1562 µg/mL | 0.976 | 0.977 | ≥ 1 | 0.949 | ≥ 1
S. aureus DSM 20231 [2], partner 0.3125 µg/mL | ≥ 1 | ≥ 1 | ≥ 1 | ≥ 1 | 0.991
S. aureus DSM 20231 [2], partner 0.625 µg/mL | ≥ 1 | ≥ 1 | ≥ 1 | ≥ 1 | ≥ 1
S. aureus Newman [3], partner 0.1562 µg/mL | 0.998 | 0.992 | ≥ 1 | – | –
S. aureus Newman [3], partner 0.3125 µg/mL | ≥ 1 | ≥ 1 | ≥ 1 | – | –
S. aureus Newman [3], partner 0.625 µg/mL | ≥ 1 | ≥ 1 | ≥ 1 | – | –

fitness, S. aureus Newman [3], one replicate, main component drawn
Settings | first compound 0.5 µg/mL | first compound 1 µg/mL | first compound 2 µg/mL
partner 0.62 µg/mL | 0.791 | 0.785 | 0.924
partner 1.24 µg/mL | 0.746 | 0.753 | 0.765
partner 2.48 µg/mL | 0.461 | 0.471 | 0.501

main component drawn
Settings | Bliss interaction score
B. subtilis 168 | 0.0936
S. aureus DSM 20231 [5] | 0.0282
S. aureus Newman [6] | 0.0337
S. pneumoniae D39V [4] | 0.0818

CCN(CC)CCOC(=O)c1ccc(N)cc1 [Procaine] + CCCCCCCCCC(=O)N[C@@H]1[C@H]([C@@H]([C@H](O[C@H]1OC2=C3C=C4C=C2OC5=C(C=C(C=C5)[C@H]([C@H]6C(=O)N[C@@H](C7=C(C(=CC(=C7)O)OC8[C@H]([C@H]([C@@H]([C@H](O8)CO)O)O)O)C9=C(C=CC(=C9)[C@H](C(=O)N6)NC(=O)[C@@H]4NC(=O)[C@@H]1C2=CC(=CC(=C2)OC2=C(C=CC(=C2)[C@H](C(=O)N[C@H](CC2=CC(=C(O3)C=C2)Cl)C(=O)N1)N)O)O)O)C(=O)O)O[C@H]1[C@@H]([C@H]([C@@H]([C@H](O1)CO)O)O)NC(=O)C)Cl)CO)O)O [Teicoplanin]
fitness, main component drawn
Settings | first compound 85.5 µg/mL | first compound 171 µg/mL | first compound 342 µg/mL
S. aureus DSM 20231 [2], partner 0.1562 µg/mL | ≥ 1 | ≥ 1 | 0.992
S. aureus DSM 20231 [2], partner 0.3125 µg/mL | 0.975 | ≥ 1 | ≥ 1
S. aureus DSM 20231 [2], partner 0.625 µg/mL | ≥ 1 | ≥ 1 | ≥ 1
S. aureus Newman [3], partner 0.1562 µg/mL | 0.996 | ≥ 1 | 0.997
S. aureus Newman [3], partner 0.3125 µg/mL | 0.975 | 0.981 | 0.963
S. aureus Newman [3], partner 0.625 µg/mL | 0.83 | 0.898 | 0.889

fitness, S. aureus Newman [3], one replicate, main component drawn
Settings | first compound 85.5 µg/mL | first compound 171 µg/mL | first compound 342 µg/mL
partner 0.62 µg/mL | 0.774 | 0.738 | 0.765
partner 1.24 µg/mL | 0.785 | 0.705 | 0.726
partner 2.48 µg/mL | 0.407 | 0.496 | 0.478

main component drawn
Settings | Bliss interaction score
B. subtilis 168 | -0.0776
S. aureus DSM 20231 [5] | 0.044
S. aureus Newman [6] | 0.0323
S. pneumoniae D39V [4] | -0.113
